According to ChEMBL document CHEMBL3046599, “Synthesis and local anaesthetic activities of 2-aminothiazole/thiadiazole analogues of lidocaine” (Med Chem Res, 2012):

How the values were obtained:
Mus musculus = experiment: Local anaesthetic activity in sc dosed Mus musculus Swiss (mouse) tail assessed as loss of pain reflex measured with in 30 secs; type: functional, organism-based
Oryctolagus cuniculus = experiment: Corneal anaesthetic activity in New Zealand Oryctolagus cuniculus (rabbit) assessed as inhibition of Frey's horse hair-induced blink reflex at 2 % solution relative to lidocaine; type: functional
Rattus norvegicus [1] = experiment: Local anaesthetic activity in Rattus norvegicus Wistar (rat) sciatic nerve block model assessed as time duration of loss of motor activity at 1 % solution measured over 45 min post injection; type: functional
Rattus norvegicus [2] = experiment: Local anaesthetic activity in Rattus norvegicus Wistar (rat) sciatic nerve block model assessed as time duration of loss of motor activity at 2 % solution measured until first sign of motor activity

Structure (SMILES)	IC50 (Mus musculus)	inhibition (INH) (Oryctolagus cuniculus)	Time (Rattus norvegicus [1])	Time (Rattus norvegicus [2])
O=C(CN1CCCCC1)Nc1nc(-c2ccc(F)cc2Cl)cs1	7.2 mM	42.6%	40 min	160 min
O=C(CN1CCCCC1)Nc1nnc(Cc2ccc(F)cc2)s1	6.6 mM	92.6%	40 min	180 min
O=C(CN1CCOCC1)Nc1nc(-c2ccc(F)cc2Cl)cs1	32 mM	25.6%	75 min	150 min
COc1ccc(Cc2nnc(NC(=O)CN3CCOCC3)s2)cc1	47 mM	40.2%	117 min	63 min
O=C(CN1CCOCC1)Nc1nnc(Cc2ccc(F)cc2)s1	12.3 mM	72.1%	25 min	50 min
CCN(CC)CC(=O)Nc1c(C)cccc1C.Cl	9.2 mM		65 min	117 min

More lines, in order of falling IC50 (Mus musculus), values ahead:

IC50 (Mus musculus)	Structure (SMILES)	inhibition (INH) (Oryctolagus cuniculus)	Time (Rattus norvegicus [1])	Time (Rattus norvegicus [2])
36 mM	CCN(CC)CC(=O)Nc1nnc(Cc2ccc(OC)cc2)s1	54.2%	77 min	72 min
24 mM	COc1ccc(Cc2nnc(NC(=O)CN3CCCCC3)s2)cc1	34.8%	35 min	160 min
23 mM	CCN(CC)CC(=O)Nc1nc(-c2ccc(F)cc2Cl)cs1	44.3%	25 min	45 min
17 mM	CCN(CC)CC(=O)Nc1nnc(Cc2ccc(F)cc2)s1	88.3%	90 min	210 min
